# Patent US20110118350A1, “COMPOSITION FOR PREVENTING CARDIOVASCULAR EVENT IN HIGH-RISK PATIENT” (MOCHIDA PHARMACEUTICAL CO., LTD., priority 2008, published 2011)
# Assay: Incidence of cardiovascular events for 5 years from the start of administration (DELIS partial analysis)
# Assay type: in vivo, human
# Conditions: for Ratio of incidence reduction (%): EPA-E vs control group; for Incidence (%) of cardiovascular events / Number of cardiovascular events: 5 years
# Source text: This trial corresponds to a partial analysis of the results obtained in DELIS (Japan EPA Lipid Intervention Study) which is a large scale clinical trial of high purity EPA preparation which was presented in the American College of Cardiology 2005 Annual Meeting (for general information on DELIS, see Lancet, vol. 369, pp. 1090-1098 (2007)). More specifically, of 18,645 subject patients of the DELIS trial (EPA group (9,326 cases) and control group (9,319 cases)), 15534 cases (sum of the control group and EPA group) were analyzed for the composition of plasma fatty acids and divided based on the average of the plasma OA/SA ratio during the whole observation period into three groups (i.e., a group having an OA/SA ratio of less than 2.6, a group having an OA/SA ratio of at least 2.6 but less than 3.0, and a group having an OA/SA ratio of at least 3.0) so that the three groups were approximately equal in number, and the groups were compared for the incidence of cardiovascular events for 5 years from the start of administration. The EPA group was orally administered with Epadel (EPA-E available from Mochida Pharmaceutical Co., Ltd.) typically at an adult dose of 600 mg per administration and 3 times a day immediately after the meal. However, in the case of abnormal serum TG, the dose could be increased to 900 mg per administration and 3 times a day depending on the degree of abnormality. In both groups, pravastatin sodium (Mevalotin™ tablets and fine granules, Daiichi Sankyo Co., Ltd.), simvastatin (Lipovas™ tablets, Banyu Pharmaceutical Co., Ltd.), or atorvastatin calcium hydrate (Lipitor™ tablets, Astellas Pharma Inc. and Pfizer Inc.) was used for the base drug, and these drugs were orally administered according to the prescribed dosage regimen. This trial corresponds to a partial analysis of the results obtained in DELIS as in Example 1. More specifically, primary prevention cases combined with secondary prevention cases, only primary prevention cases, and only secondary prevention cases were respectively divided into four groups based on the plasma OA level or the plasma SA level at the start of administration so that the four groups were approximately equal in number. The groups were compared for the incidence of cardiovascular events for 5 years from the start of administration.
# [1] = primary + secondary prevention cases, Total (oleic acid grouping)
# [2] = primary + secondary prevention cases, Total (stearic acid grouping)
# [3] = primary + secondary prevention cases, oleic acid at start 22.1< mol %
# [4] = primary + secondary prevention cases, oleic acid at start >18.2-20.1 mol %
# [5] = primary + secondary prevention cases, oleic acid at start >20.1-22.1 mol %
# [6] = primary + secondary prevention cases, oleic acid at start −18.2 mol %
# [7] = primary + secondary prevention cases, stearic acid at start 7.35< mol %
# [8] = primary + secondary prevention cases, stearic acid at start >6.46-6.89 mol %
# [9] = primary + secondary prevention cases, stearic acid at start >6.89-7.35 mol %
# [10] = primary + secondary prevention cases, stearic acid at start −6.46 mol %
# [11] = primary prevention cases, Total (oleic acid grouping)
# [12] = primary prevention cases, Total (stearic acid grouping)
# [13] = primary prevention cases, oleic acid at start 21.9< mol %
# [14] = primary prevention cases, oleic acid at start >18.1-19.9 mol %
# [15] = primary prevention cases, oleic acid at start >19.9-21.9 mol %
# [16] = primary prevention cases, oleic acid at start −18.1 mol %
# [17] = primary prevention cases, stearic acid at start 7.33< mol %
# [18] = primary prevention cases, stearic acid at start >6.46-6.89 mol %
# [19] = primary prevention cases, stearic acid at start >6.89-7.33 mol %
# [20] = primary prevention cases, stearic acid at start −6.46 mol %
# [21] = secondary prevention cases, Total (oleic acid grouping)
# [22] = secondary prevention cases, Total (stearic acid grouping)
# [23] = secondary prevention cases, oleic acid at start 22.1< mol %
# [24] = secondary prevention cases, oleic acid at start >18.2-20.1 mol %
# [25] = secondary prevention cases, oleic acid at start >20.1-22.1 mol %
# [26] = secondary prevention cases, oleic acid at start −18.2 mol %
# [27] = secondary prevention cases, stearic acid at start 7.38< mol %
# [28] = secondary prevention cases, stearic acid at start >6.46-6.90 mol %
# [29] = secondary prevention cases, stearic acid at start >6.90-7.38 mol %
# [30] = secondary prevention cases, stearic acid at start −6.46 mol %
structure (smiles),measurement,setting,value
"CC/C=C\C/C=C\C/C=C\C/C=C\C/C=C\CCCC(=O)OCC [EPA-E, ethyl icosapentate]",Ratio of incidence reduction (%),[1],13.2%
same,Ratio of incidence reduction (%),[2],13.2%
same,Ratio of incidence reduction (%),[3],30.3%
same,Ratio of incidence reduction (%),[4],14.6%
same,Ratio of incidence reduction (%),[5],−2.0%
same,Ratio of incidence reduction (%),[6],−5.3%
same,Ratio of incidence reduction (%),[7],39.5%
same,Ratio of incidence reduction (%),[8],−13.9%
same,Ratio of incidence reduction (%),[9],26.6%
same,Ratio of incidence reduction (%),[10],1.8%
same,Ratio of incidence reduction (%),[11],11.1%
same,Ratio of incidence reduction (%),[12],11.1%
same,Ratio of incidence reduction (%),[13],30.4%
same,Ratio of incidence reduction (%),[14],26.1%
same,Ratio of incidence reduction (%),[15],−20.6%
same,Ratio of incidence reduction (%),[16],−12.2%
same,Ratio of incidence reduction (%),[17],17.0%
same,Ratio of incidence reduction (%),[18],−17.3%
same,Ratio of incidence reduction (%),[19],19.5%
same,Ratio of incidence reduction (%),[20],22.0%
same,Ratio of incidence reduction (%),[21],15.5%
same,Ratio of incidence reduction (%),[22],15.5%
same,Ratio of incidence reduction (%),[23],40.8%
same,Ratio of incidence reduction (%),[24],−3.4%
same,Ratio of incidence reduction (%),[25],8.1%
same,Ratio of incidence reduction (%),[26],3.0%
same,Ratio of incidence reduction (%),[27],65.2%
same,Ratio of incidence reduction (%),[28],−19.9%
same,Ratio of incidence reduction (%),[29],38.7%
same,Ratio of incidence reduction (%),[30],−26.0%
same,effect on incidence and/or rate of recurrence of cardiovascular events,patients with an OA level exceeding 22.1 mol % or an SA level exceeding 7.38 mol %,reduced incidence and/or rate of recurrence of cardiovascular events
same,Incidence (%) of cardiovascular events,[1],3.8%
same,Number of cardiovascular events,[1],266
same,Incidence (%) of cardiovascular events,[2],3.8%
same,Number of cardiovascular events,[2],266
same,Incidence (%) of cardiovascular events,[3],4.7%
same,Number of cardiovascular events,[3],77
same,Incidence (%) of cardiovascular events,[4],3.1%
same,Number of cardiovascular events,[4],55
same,Incidence (%) of cardiovascular events,[5],4.4%
same,Number of cardiovascular events,[5],76
same,Incidence (%) of cardiovascular events,[6],3.3%
same,Number of cardiovascular events,[6],58
same,Incidence (%) of cardiovascular events,[7],2.5%
same,Number of cardiovascular events,[7],44
same,Incidence (%) of cardiovascular events,[8],4.9%
same,Number of cardiovascular events,[8],81
same,Incidence (%) of cardiovascular events,[9],3.2%
same,Number of cardiovascular events,[9],56
same,Incidence (%) of cardiovascular events,[10],4.8%
same,Number of cardiovascular events,[10],85
same,Incidence (%) of cardiovascular events,[11],2.5%
same,Number of cardiovascular events,[11],140
same,Incidence (%) of cardiovascular events,[12],2.5%
same,Number of cardiovascular events,[12],140
same,Incidence (%) of cardiovascular events,[13],2.8%
same,Number of cardiovascular events,[13],40
same,Incidence (%) of cardiovascular events,[14],1.9%
same,Number of cardiovascular events,[14],27
same,Incidence (%) of cardiovascular events,[15],3.2%
same,Number of cardiovascular events,[15],46
same,Incidence (%) of cardiovascular events,[16],1.8%
same,Number of cardiovascular events,[16],27
same,Incidence (%) of cardiovascular events,[17],1.9%
same,Number of cardiovascular events,[17],27
same,Incidence (%) of cardiovascular events,[18],3.1%
same,Number of cardiovascular events,[18],43
same,Incidence (%) of cardiovascular events,[19],2.4%
same,Number of cardiovascular events,[19],34
same,Incidence (%) of cardiovascular events,[20],2.4%
same,Number of cardiovascular events,[20],36
same,Incidence (%) of cardiovascular events,[21],10.2%
same,Number of cardiovascular events,[21],126
same,Incidence (%) of cardiovascular events,[22],10.2%
same,Number of cardiovascular events,[22],126
same,Incidence (%) of cardiovascular events,[23],9.5%
same,Number of cardiovascular events,[23],27
same,Incidence (%) of cardiovascular events,[24],8.7%
same,Number of cardiovascular events,[24],28
same,Incidence (%) of cardiovascular events,[25],11.5%
same,Number of cardiovascular events,[25],37
same,Incidence (%) of cardiovascular events,[26],11.2%
same,Number of cardiovascular events,[26],34
same,Incidence (%) of cardiovascular events,[27],4.3%
same,Number of cardiovascular events,[27],14
same,Incidence (%) of cardiovascular events,[28],14.2%
same,Number of cardiovascular events,[28],41
same,Incidence (%) of cardiovascular events,[29],6.9%
same,Number of cardiovascular events,[29],22
same,Incidence (%) of cardiovascular events,[30],16.4%
same,Number of cardiovascular events,[30],49
